# Data published in patent US12568963B2, “Compounds and compositions for nematode treatment” (IOWA STATE UNIVERSITY RESEARCH FOUNDATION, INC., priority 2020, dated 2026).
# “And” between values parts separate entries of the source, which are not always exact repeats. Equal values may be shown once. Read-outs that look alike come from different tables or passages of the source. Marks after values point to notes of the source that are not given here.
# Legend:
# SCN = conditions: for SCN Population Densities 34 DAP / SCN Population Densities 64 DAP / SCN Population Densities harvest / Biomass at harvest, total / Biomass at harvest, seed: susceptible soybean; for SCN Population Densities 34 DAP: 34 days after planting; for SCN Population Densities 64 DAP: 64 days after planting; for Biomass at harvest, total: dry weight of all plants per microplot; for Biomass at harvest, seed: seed weight per microplot
# Excerpt: Microplots were constructed by inserting 1-m-diameter by 0.25-m-tall circles of plastic drainage pipe into the soil in a field on a university-owned research farm located 10 km (6 miles) due west of Ames, IA. The field was not infested with SCN prior to being infested for the experiment.
# The soil in the top 20 cm of each microplot was loosened, turned over, and artificially infested with approximately 570,000 SCN eggs contained within cysts in 1 liter of soil from greenhouse cultures. The SCN inoculum was applied in a band across the middle of the microplot (FIG. 5A), then 1.65 L of treatment solution were applied over the infested soil. […] Two different control treatments consisted of microplots receiving 1.65 L of autoclaved, deionized water and microplots receiving 1.65 L of the solvent used to dilute the compounds. The SCN-infested soil inoculum and applied liquid treatment were rototilled into the soil in each microplot, then 40 seeds of the SCN-susceptible variety “Williams 82” were planted in a single, central row within each microplot (FIG. 5B). Similarly, seeds of the SCN-resistant variety “Jack” were planted in microplots infested with SCN inoculum and treated with water as a third control treatment. There were four replications of each of the six treatments arranged in a randomized complete block design. Microplots were spaced 1 m apart in rows separated by 3 m to avoid cross contamination among microplots (FIG. 5F). Plants were grown for the entire 2020 growing season (FIGS. 5C through 5H).
# The total number of plants growing in each microplot were counted (i.e., a “stand count”) 34 days after planting. A total of five soil cores, 2 cm in diameter and 15 to 20 cm deep, were collected from the root zone on either side of the row of soybean plants in each microplot 34 days after planting, 64 days after planting, and when the plants were removed from the microplots to determine the SCN population densities. SCN requires approximately 30 days to complete a single generation. […] SCN cysts (dead females full of eggs) were extracted from the soil samples using a wet sieving method, and eggs were released from the recovered cysts by crushing cysts with a motorized rubber stopper. Recovered eggs were stained with acid fuchsin and counted under a microscope to determine their number per 100 cm^3 of soil.
# The stems of soybean plants in each microplot were cut at the soil line, and all plants from each microplot were placed in large paper bags and stored in an unheated shed until they were further processed. The dry weight of all plants in each microplot was determined (total plant biomass at harvest), and then all plants from each microplot were fed through a plot combine to collect and weigh the seeds (seed biomass).
# SCN eggs = test: SCN hatching assay (continuous and short-term exposure); conditions: in vivo
# Description: Two similar assays ran synchronously. For both, approximately 300 eggs were pipetted onto 20 mm-diameter plastic microsieves and placed in a six-well plate and incubated at 25° C. in 3 mL of treatment (FIG. 1A). In a continuous exposure assay, eggs (FIG. 1B) were incubated in treatments for 15 days, and in a short-term exposure assay, eggs were incubated in treatments for one day, rinsed, then incubated in deionized water for 14 days. The number of hatched second-stage juveniles (FIG. 1B) was determined for both assays after 3, 6, 9, 12, and 15 days when the microsieves containing the eggs were moved to an empty well and fresh treatment solution was added. […] Compounds were tested over twelve different experimental runs in total, with some tested three times, others twice, and some once.
# The number of hatched and unhatched juveniles of SCN in each treatment were subjected to an analysis with a quasibinomial generalized linear model to estimate the percent hatching for each treatment in each individual experimental run. Then, a test of marginal means was done to determine the estimated percent hatching in each treatment over all runs. […] Analysis were performed on four different treatment groups: continuous 100 ppm, short term 100 ppm, continuous 10 ppm, and short term 10 ppm.
# Because of the complexity of the experimental design and the large variation in hatch rates between different testing blocks, as well as the long duration over which testing has occurred, the statistical analysis is not straight-forward. First, within each block bi, the mean μi hatch rate (in percent) in the solvent control is calculated (in blocks with both short-term and continuous exposure, these two testing methods are analyzed independently). For each treatment hatch rate xj in block bi, a “hatching score” hij is the calculated as
# The arcsine transformation is used to account for the fact that calculating the ratio of hatching is subject to non-linear effects. A general linear model is then used to account for additional block effects, and Dunnett's adjustment is used as the multiple comparison procedure to control the familywise error rate, as all treatments are compared to the solvent control. […] These controls were not used in the calculation of significance other than as controls common to each block in the unbalanced incomplete block design experiment.
# The estimate column contains an estimate of the difference in hatch rate modulation between the solvent control and the treatment. This is estimated as a percentage hatch rate of the control. For reliability of the magnitude of the effect, more than one block is needed. Due to the high variation in solvent control hatch rates between blocks, some percentage modulations may fall outside the expected range (e.g., below −100%).
# Due to the arctangent/tangent conversions, the standard errors of the mean (column SE) are very rough estimates of the standard error. However, the p value column contains the actual p-values.
# [1] = Solubility in the solvent system / water; type: physicochemical
# Description: Several tested compounds were obtained commercially while others were synthesized from simple starting materials (see Example 1, supra). Compounds were dissolved in a solvent containing 0.08% ethanol, 0.08% TRITON™ X-100, and nano-purified water and were tested at 10 and 100 ppm.
# Almost all compounds were tested at 100 ppm, provided they were sufficiently soluble in the solvent system at this concentration.
# M. incognita = test: RKN quick sand assay (cucumber root galling); type: in vivo; conditions: 15 days after infestation with 2,000 M. incognita eggs; abamectin 100 ppm drench; solvent control 24%
# Description: Deionized water, 100 ppm abamectin, and solvent were used as controls. […] To date, compounds were tested in three different experimental runs, with some compounds being tested twice and others once. A beta regression model was used to estimate the percent of galling for each treatment in each run. As with the hatching data analyses, a test of marginal means was performed to determine the estimated percent of galling in each treatment over all runs.
compound,measurement,setting,value
"Cc1ccc(C=C[N+](=O)[O-])cc1 [4-M-BNS, 4-methyl beta-nitrostyrene]",SCN Population Densities 34 DAP,SCN; 100 ppm solution,"5,800 # eggs per 100 cm^3 soil"
same,SCN Population Densities 64 DAP,SCN; 100 ppm solution,"7,400 # eggs per 100 cm^3 soil"
same,SCN Population Densities harvest,"SCN; 100 ppm solution, at harvest","9,800 # eggs per 100 cm^3 soil"
same,"Biomass at harvest, total",SCN; 100 ppm solution,654 g
same,"Biomass at harvest, seed",SCN; 100 ppm solution,322 g
same,seed weights (analogous to grain yield) versus susceptible/water treatment,SCN; in vivo,significantly greater
same,soil SCN egg population densities 64 days after planting versus susceptible/water treatment,SCN; in vivo,significantly lower
COc1cc(/C=C/C=O)ccc1O [4H3MC],"estimate (difference in hatch rate modulation between solvent control and treatment, as percentage hatch rate of the control)",SCN eggs,−55.3%
C(=C\C1SCCS1)/c1ccccc1 [JSK3011],solubility in water,"[1]; not sufficiently soluble at 100 ppm in solvent system, only tested at 10 ppm",low solubility
"O=C(/C=C/c1ccc(Cl)cc1)C1CC1 [JSK3087, 4-Chlorostyryl Cyclopropyl Ketone]",soil SCN egg population densities 64 days after planting versus susceptible/water treatment,"SCN; 100 ppm solution, LSD alpha = 0.10",significantly lower
same,SCN Population Densities 34 DAP,SCN; 100 ppm solution,"7,275 # eggs per 100 cm^3 soil"
same,SCN Population Densities 64 DAP,SCN; 100 ppm solution,"4,700 # eggs per 100 cm^3 soil"
same,SCN Population Densities harvest,"SCN; 100 ppm solution, at harvest","6,400 # eggs per 100 cm^3 soil"
same,"Biomass at harvest, total",SCN; 100 ppm solution,668 g
same,"Biomass at harvest, seed",SCN; 100 ppm solution,327 g
same,seed weights (analogous to grain yield) versus susceptible/water treatment,SCN; at harvest,significantly greater
O=CC(Br)=Cc1ccccc1 [a-bromocinnamaldehyde],solubility in water,[1],low solubility
N#CC=Cc1ccccc1 [cinnamonitrile],"estimate (difference in hatch rate modulation between solvent control and treatment, as percentage hatch rate of the control)",SCN eggs,−53.8%
CC(=O)C=Cc1ccccc1 [methyl styryl ketone],"estimate (difference in hatch rate modulation between solvent control and treatment, as percentage hatch rate of the control)",SCN eggs,−75.4% and −85%
"O=S(=O)([O-])[O-].[Zn+2] [zinc sulfate, reference compound]","estimate (difference in hatch rate modulation between solvent control and treatment, as percentage hatch rate of the control)",SCN eggs,54.7% and 54.9%
abamectin,percentage galling of cucumber roots,M. incognita,0%
